Measured values: PMC7614683, “A small molecule PI3Kα activator for cardioprotection and neuroregeneration” (Nature, 2023)

What was measured:
PI3Kα-WT MEFs [1] = assay: Cell cycle progression by EdU staining, PI3Kα-WT MEFs; format: cell-based, mouse; conditions: 24h; BYL719 as co-treatment with 1938
Method: The Click-IT EdU protocol was used according to manufacturer instructions (Sigma-Aldrich #BCK-FC488-50). Briefly, MEFs were seeded at 50,000 cells per well in 6-well plates in DMEM supplemented with 10% FBS and 1% P/S, and allowed to attach overnight. The next day, cells were serum-starved for 5 h prior to compound addition for 24 h in fresh serum-free DMEM. Cells were then pulsed for 3 h with 10 μM EdU, followed by collection by trypsinization and fixation with 3.7% FA in PBS for 15 min in the dark, washed in 3% BSA and permeabilized in 1x saponin-based permeabilization buffer for 20 min in the dark. EdU was then detected using the FAM-azide assay cocktail for 30 min in the dark. Cells were washed twice in 1x saponin-based permeabilization buffer followed by analysis with flow cytometer (Novocyte Advanteon flow cytometer, Agilent). Gating strategy for flow cytometry is shown in Supplementary Fig. 2.

A549 cells = assay: Phosphoinositide quantification by mass spectrometry, A549; format: cell-based, human; conditions: A549, 2 min
Method: A549 cells (5.10^5) or wild-type MEFs (3.10^5) were plated in complete media onto 3.5 cm dishes or 60 mm dishes respectively for 24 h, prior to FCS-free starvation media for 16 h. MEFs, in addition, were supplemented with arachidonic acid in the FCS-free starvation media as previously described. […] Reactions were terminated in 600 μl ice-cold 1 M HCl and cells scraped and resuspended, then divided into two equal samples in eppendorfs. […] The data are shown as response ratios, calculated by normalizing the multiple reaction monitoring (MRM)-targeted lipid integrated response area to that of a known amount of relevant internal standard. To account for any cell input variability, PIP3 response ratios were normalized to C38:4-PI response ratios; while PI(3,4)P2 response ratios were normalised to PI(4,5)P2 response ratios. Data shown are mean ±SD for n ≥3, except for non-DMSO control in MEF PIP3 measurements where n=1.

PI3Kα-KO MEFs = assay: pAKT S473 western blot, PI3Kα-KO MEFs; format: cell-based, mouse; conditions: 15 min
Method: Unless otherwise indicated, western blotting was performed with ECL detection. For time course studies, A549 cells were seeded at 250,000 cells per well in 6-well plates in RPMI (10% FBS + 1 mM Na-Pyruvate + 1% P/S) and allowed to adhere overnight. The next day they were serum-starved for 4 h prior to treatment with 100 nM insulin or 5 μM 1938, for the indicated time (5 min to 48 h) at 37°C, 5% CO2. For 1938 titration assays in MEFs, cells were seeded at 150,000 cells per well in 6-well plates and allowed to adhere overnight. The next day they were serum-starved for 4 h prior to treatment with insulin (1 μM), 1938 (0.2 to 30 μM, final DMSO concentration of 1.5%) or inhibitors (final DMSO concentration of ≤1.5%) for 15 min at 37°C, 5% CO2. Cells were washed twice with cold PBS and lysed using cold RIPA buffer (25 mM Tris.HCl pH 7.6, 150 mM NaCl, 1% NP-40, 1% sodium deoxycholate, 0.1% SDS supplemented with protease/phosphatase inhibitor cocktail from Merck). To remove cell debris, homogenates were spun at 13,000 rpm for 15 min at 4°C and the supernatant fraction recovered. Protein concentration was determined by colorimetric assay (BCA assay, Promega). Protein extracts were resolved by SDS-PAGE, transferred to nitrocellulose membranes, and incubated overnight at 4°C with specific antibodies as follows: anti-vinculin (Sigma #V9131) and the following antibodies from Cell Signaling Technology (CST): pAKT-S473 (CST #9271), pS6-S240/244 (CST #2215), pPRAS40-T246 (CST #2640) and total S6 (CST #2317). Primary ntibodies were used at 1:1000 dilution except anti-vinculin (1:10000). Secondary antibodies are also from Cell Signalling Technology: Anti rabbit IgG, HRP linked Antibody (CST #7074S), Anti mouse IgG, HRP linked Antibody (CST #7076S). Raw and uncropped blots are shown in Supplementary Fig. 1.

PI3Kα-WT MEFs [2] = assay: Cell number by crystal violet staining, PI3Kα-WT MEFs; format: cell-based, mouse; conditions: 24h
Method: MEFs were seeded at 5000 cells per well in 96-well plates in DMEM supplemented with 10% FBS and 1% P/S, and allowed to attach overnight. The next day, cells were serum-starved for 5 h prior to compound addition in fresh serum-free DMEM. After different time points, cells were rapidly washed with distilled H2O before fixed and stained in a solution of 0.5% crystal violet (Sigma-Aldrich #C0775) in 20% methanol (v:v) as described. Briefly, after 20 min incubation at room temperature on a rocking platform, fixed and stained cells were washed 3 times with distilled H2O and plates air-dried overnight. 200 μl methanol was next added to each well and the plates were incubated at room temperature for 20 min on a bench rocker, followed by measurement of optical density at 570 with a plate reader.

Compound	cell cycle progression (EdU incorporation) (PI3Kα-WT MEFs [1])	concentration at which the PIP3 response maxed out (A549 cells)	pAKT^S473 induction (PI3Kα-KO MEFs)	cell number (crystal violet staining) (PI3Kα-WT MEFs [2])	PIP3 response (A549 cells)
CCN1CCN(c2ccc(Nc3cc(Nc4cccc5c4N(C(C)=O)CC5)ccn3)cc2)CC1 [Compound 1938]	induced cell cycle progression	10 µM	no pAKT^S473 signal	increase in cell number	–
insulin: insulin, canonical activator of PI3Kα, used as positive control	did not induce cell cycle progression	–	still respond to insulin	did not induce cell cycle progression and an increase in cell number	strong PIP3 response
